Reference: the kinase profiling compilation of Christmann-Franck et al. (2016)

Tests used:
Assay in all cases: KINOMEscan competition binding
Details in all cases: compound 10.0 µM
[1] = biological target: ADCK4 (human) (UniProt Q96D53)
[2] = biological target: BMPR1B (human) (UniProt O00238)
[3] = biological target: CAMK1G (human) (UniProt Q96NX5)
[4] = biological target: CDK15 (human) (UniProt Q96Q40)
[5] = biological target: CDK8 (human) (UniProt P49336)
[6] = biological target: CDK9 (human) (UniProt P50750)
[7] = biological target: CHEK2 (human) (UniProt O96017)
[8] = biological target: CLK4 (human) (UniProt Q9HAZ1)
[9] = biological target: DAPK3 (human) (UniProt O43293)
[10] = biological target: FER (human) (UniProt P16591)
[11] = biological target: FGR (human) (UniProt P09769)
[12] = biological target: FLT3 (human) (UniProt P36888)
[13] = test system: FLT3 (human), P36888 [N841I]
[14] = biological target: LCK (human) (UniProt P06239)
[15] = biological target: MAP2K1 (human) (UniProt Q02750)
[16] = biological target: MAP2K4 (human) (UniProt P45985)
[17] = biological target: MAP4K3 (human) (UniProt Q8IVH8)
[18] = biological target: MAPK4 (human) (UniProt P31152)
[19] = biological target: MAPK7 (human) (UniProt Q13164)
[20] = biological target: MKNK1 (human) (UniProt Q9BUB5)
[21] = biological target: MYLK (human) (UniProt Q15746)
[22] = biological target: NEK5 (human) (UniProt Q6P3R8)
[23] = biological target: NTRK1 (human) (UniProt P04629)
[24] = biological target: PDGFRA (human) (UniProt P16234)
[25] = biological target: PHKG2 (human) (UniProt P15735)
[26] = biological target: PIM2 (human) (UniProt Q9P1W9)
[27] = biological target: PIP5K1A (human) (UniProt Q99755)
[28] = biological target: PKMYT1 (human) (UniProt Q99640)
[29] = biological target: PLK1 (human) (UniProt P53350)
[30] = biological target: PRKD2 (human) (UniProt Q9BZL6)
[31] = biological target: PRKG1 (human) (UniProt Q13976)
[32] = biological target: RET (human) (UniProt P07949)
[33] = biological target: SRMS (human) (UniProt Q9H3Y6)
[34] = biological target: STK16 (human) (UniProt O75716)
[35] = biological target: STK32B (human) (UniProt Q9NY57)
[36] = biological target: STK32C (human) (UniProt Q86UX6)
[37] = biological target: TEK (human) (UniProt Q02763)
[38] = biological target: TESK1 (human) (UniProt Q15569)
[39] = biological target: TGFBR1 (human) (UniProt P36897)
[40] = biological target: TLK2 (human) (UniProt Q86UE8)
[41] = biological target: TXK (human) (UniProt P42681)

CHEK2 (human), sequence (O96017 whole entry, looked up): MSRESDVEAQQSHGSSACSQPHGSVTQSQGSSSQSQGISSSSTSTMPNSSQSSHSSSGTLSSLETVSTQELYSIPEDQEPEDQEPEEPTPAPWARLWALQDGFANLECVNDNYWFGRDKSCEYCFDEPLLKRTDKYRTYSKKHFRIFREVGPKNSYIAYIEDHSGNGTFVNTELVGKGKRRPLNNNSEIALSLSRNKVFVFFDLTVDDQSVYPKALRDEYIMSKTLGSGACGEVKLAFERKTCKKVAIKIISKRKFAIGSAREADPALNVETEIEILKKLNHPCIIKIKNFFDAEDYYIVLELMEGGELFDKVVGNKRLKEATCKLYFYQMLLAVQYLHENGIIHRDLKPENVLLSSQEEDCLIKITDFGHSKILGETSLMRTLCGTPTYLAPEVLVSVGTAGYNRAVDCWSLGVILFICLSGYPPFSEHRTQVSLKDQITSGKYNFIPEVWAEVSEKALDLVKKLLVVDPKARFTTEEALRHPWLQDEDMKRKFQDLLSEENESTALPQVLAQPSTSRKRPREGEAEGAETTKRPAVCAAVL
STK32B (human), sequence (Q9NY57 whole entry, looked up): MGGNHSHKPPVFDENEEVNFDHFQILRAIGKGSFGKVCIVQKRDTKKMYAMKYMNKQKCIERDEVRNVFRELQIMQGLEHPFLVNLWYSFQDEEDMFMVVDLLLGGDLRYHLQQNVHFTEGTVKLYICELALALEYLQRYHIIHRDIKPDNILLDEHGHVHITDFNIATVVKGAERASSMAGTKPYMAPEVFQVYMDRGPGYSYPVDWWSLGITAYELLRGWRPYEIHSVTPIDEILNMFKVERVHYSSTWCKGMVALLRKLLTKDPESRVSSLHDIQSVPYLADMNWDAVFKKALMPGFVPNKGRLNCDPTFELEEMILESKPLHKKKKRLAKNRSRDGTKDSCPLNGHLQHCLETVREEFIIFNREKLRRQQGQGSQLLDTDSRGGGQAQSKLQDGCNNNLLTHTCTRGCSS
PHKG2 (human), sequence (P15735 whole entry, looked up): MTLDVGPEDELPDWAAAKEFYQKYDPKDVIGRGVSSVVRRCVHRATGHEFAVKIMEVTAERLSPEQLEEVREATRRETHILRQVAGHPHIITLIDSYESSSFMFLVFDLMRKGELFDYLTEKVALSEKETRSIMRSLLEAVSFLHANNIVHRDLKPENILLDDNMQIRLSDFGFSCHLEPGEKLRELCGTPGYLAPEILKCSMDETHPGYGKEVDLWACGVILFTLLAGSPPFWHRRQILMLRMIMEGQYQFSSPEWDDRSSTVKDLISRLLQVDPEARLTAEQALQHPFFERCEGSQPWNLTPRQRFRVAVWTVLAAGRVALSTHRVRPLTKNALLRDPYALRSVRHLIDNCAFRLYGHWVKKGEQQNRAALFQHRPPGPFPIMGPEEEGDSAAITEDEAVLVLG
MAPK7 (human), sequence (Q13164 whole entry, looked up): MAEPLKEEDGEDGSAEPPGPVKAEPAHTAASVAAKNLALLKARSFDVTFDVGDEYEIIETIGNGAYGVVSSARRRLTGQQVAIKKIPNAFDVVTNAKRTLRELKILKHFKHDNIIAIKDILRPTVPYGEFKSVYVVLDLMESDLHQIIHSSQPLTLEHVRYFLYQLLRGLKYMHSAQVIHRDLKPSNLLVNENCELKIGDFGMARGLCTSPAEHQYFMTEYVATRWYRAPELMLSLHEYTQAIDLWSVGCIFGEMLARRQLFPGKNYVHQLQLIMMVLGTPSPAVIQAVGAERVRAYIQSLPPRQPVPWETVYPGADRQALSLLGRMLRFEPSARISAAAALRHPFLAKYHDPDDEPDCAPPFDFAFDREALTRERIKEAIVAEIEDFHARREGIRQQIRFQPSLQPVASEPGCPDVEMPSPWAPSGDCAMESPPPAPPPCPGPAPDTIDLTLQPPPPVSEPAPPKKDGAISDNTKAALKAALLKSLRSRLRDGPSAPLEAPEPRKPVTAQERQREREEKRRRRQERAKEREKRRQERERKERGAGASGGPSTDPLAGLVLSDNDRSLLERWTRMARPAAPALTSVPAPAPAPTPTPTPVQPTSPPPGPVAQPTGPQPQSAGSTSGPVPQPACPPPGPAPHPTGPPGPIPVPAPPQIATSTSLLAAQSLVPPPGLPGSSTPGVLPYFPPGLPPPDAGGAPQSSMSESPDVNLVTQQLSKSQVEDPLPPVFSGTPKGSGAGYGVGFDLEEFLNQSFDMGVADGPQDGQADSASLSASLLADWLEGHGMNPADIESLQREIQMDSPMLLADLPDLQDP
MAP2K1 (human), sequence (Q02750 whole entry, looked up): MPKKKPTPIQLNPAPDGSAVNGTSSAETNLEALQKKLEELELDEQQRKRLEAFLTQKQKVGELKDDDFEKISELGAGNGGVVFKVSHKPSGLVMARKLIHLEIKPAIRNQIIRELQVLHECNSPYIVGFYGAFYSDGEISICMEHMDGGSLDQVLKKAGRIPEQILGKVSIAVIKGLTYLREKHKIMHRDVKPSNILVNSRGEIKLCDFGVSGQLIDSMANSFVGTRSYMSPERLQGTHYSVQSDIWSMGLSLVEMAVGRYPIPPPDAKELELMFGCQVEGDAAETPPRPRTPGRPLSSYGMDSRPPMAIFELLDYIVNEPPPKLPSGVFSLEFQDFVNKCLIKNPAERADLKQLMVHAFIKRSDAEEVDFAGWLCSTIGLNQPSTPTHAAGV
FGR (human), sequence (P09769 whole entry, looked up): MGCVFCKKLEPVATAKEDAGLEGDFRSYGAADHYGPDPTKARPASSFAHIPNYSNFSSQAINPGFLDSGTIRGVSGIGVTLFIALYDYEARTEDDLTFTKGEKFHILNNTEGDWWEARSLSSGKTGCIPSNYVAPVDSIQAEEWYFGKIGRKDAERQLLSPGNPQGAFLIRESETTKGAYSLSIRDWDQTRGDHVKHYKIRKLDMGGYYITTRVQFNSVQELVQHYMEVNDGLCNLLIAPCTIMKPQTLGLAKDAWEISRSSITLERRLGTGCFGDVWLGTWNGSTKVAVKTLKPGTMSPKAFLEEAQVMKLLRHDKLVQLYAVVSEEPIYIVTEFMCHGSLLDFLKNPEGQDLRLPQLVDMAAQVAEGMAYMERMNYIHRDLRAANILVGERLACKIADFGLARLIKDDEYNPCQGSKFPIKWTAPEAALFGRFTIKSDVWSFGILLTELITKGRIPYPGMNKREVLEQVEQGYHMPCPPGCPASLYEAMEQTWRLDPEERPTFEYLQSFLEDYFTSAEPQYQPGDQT
LCK (human), sequence (P06239 whole entry, looked up): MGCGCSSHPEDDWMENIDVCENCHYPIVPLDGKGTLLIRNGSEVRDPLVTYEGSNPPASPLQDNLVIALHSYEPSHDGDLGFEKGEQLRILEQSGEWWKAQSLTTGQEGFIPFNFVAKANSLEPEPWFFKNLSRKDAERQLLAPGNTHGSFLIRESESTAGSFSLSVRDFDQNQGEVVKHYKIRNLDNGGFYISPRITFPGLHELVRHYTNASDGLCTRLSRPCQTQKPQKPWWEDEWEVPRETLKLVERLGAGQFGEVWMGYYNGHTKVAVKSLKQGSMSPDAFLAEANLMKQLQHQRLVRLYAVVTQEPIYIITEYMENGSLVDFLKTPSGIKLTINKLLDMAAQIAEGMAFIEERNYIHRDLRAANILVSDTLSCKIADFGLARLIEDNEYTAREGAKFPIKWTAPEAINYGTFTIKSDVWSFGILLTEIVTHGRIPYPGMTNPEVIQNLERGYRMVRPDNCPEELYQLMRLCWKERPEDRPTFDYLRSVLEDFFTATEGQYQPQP
MAP4K3 (human), sequence (Q8IVH8 whole entry, looked up): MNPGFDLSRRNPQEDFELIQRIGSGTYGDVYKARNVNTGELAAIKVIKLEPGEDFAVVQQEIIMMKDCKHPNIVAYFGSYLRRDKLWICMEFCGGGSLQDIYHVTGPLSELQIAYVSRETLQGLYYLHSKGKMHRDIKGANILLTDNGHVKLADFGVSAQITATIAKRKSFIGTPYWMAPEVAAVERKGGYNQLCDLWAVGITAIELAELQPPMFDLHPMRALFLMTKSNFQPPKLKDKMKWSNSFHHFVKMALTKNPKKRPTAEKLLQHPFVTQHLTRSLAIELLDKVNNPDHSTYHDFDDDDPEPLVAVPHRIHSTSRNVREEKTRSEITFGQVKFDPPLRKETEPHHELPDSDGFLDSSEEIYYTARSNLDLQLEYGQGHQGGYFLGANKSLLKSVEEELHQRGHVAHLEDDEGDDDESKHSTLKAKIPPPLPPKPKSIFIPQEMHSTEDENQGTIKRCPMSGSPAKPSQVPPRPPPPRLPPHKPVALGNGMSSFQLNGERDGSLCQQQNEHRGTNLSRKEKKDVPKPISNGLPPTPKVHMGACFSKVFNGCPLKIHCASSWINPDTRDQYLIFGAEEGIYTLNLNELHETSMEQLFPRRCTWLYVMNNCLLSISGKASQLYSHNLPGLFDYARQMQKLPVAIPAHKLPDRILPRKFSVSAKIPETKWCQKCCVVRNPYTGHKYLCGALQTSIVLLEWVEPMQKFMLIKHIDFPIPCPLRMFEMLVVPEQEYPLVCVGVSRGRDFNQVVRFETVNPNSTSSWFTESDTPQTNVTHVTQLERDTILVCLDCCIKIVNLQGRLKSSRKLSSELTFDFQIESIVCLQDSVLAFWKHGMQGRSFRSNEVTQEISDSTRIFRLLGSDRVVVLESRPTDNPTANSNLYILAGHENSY
CDK9 (human), sequence (P50750 whole entry, looked up): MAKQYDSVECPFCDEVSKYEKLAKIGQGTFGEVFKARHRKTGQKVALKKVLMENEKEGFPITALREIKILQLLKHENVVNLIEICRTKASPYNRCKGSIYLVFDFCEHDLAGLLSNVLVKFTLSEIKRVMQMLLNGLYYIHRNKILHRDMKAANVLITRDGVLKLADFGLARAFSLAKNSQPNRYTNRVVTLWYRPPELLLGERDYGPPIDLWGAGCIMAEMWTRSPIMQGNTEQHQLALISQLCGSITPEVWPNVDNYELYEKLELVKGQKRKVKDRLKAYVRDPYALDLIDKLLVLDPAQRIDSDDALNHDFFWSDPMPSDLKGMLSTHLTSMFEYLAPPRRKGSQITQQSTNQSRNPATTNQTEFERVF

Compound: Cc1ccc(NC(=O)c2cccc(C(C)(C)C#N)c2)cc1Nc1ccc2ncn(C)c(=O)c2c1
- kinase still bound, per cent of control [1]: 100%
- kinase still bound, per cent of control [2]: 82%
- kinase still bound, per cent of control [3]: 100%
- kinase still bound, per cent of control [4]: 100%
- kinase still bound, per cent of control [5]: 22%
- kinase still bound, per cent of control [6]: 100%
- kinase still bound, per cent of control [7]: 92%
- kinase still bound, per cent of control [8]: 100%
- kinase still bound, per cent of control [9]: 85%
- kinase still bound, per cent of control [10]: 100%
- kinase still bound, per cent of control [11]: 12%
- kinase still bound, per cent of control [12]: 61%
- kinase still bound, per cent of control [13]: 62%
- kinase still bound, per cent of control [14]: 0.7%
- kinase still bound, per cent of control [15]: 100%
- kinase still bound, per cent of control [16]: 100%
- kinase still bound, per cent of control [17]: 94%
- kinase still bound, per cent of control [18]: 100%
- kinase still bound, per cent of control [19]: 100%
- kinase still bound, per cent of control [20]: 100%
- kinase still bound, per cent of control [21]: 98%
- kinase still bound, per cent of control [22]: 33%
- kinase still bound, per cent of control [23]: 98%
- kinase still bound, per cent of control [24]: 0.1%
- kinase still bound, per cent of control [25]: 100%
- kinase still bound, per cent of control [26]: 100%
- kinase still bound, per cent of control [27]: 100%
- kinase still bound, per cent of control [28]: 98%
- kinase still bound, per cent of control [29]: 100%
- kinase still bound, per cent of control [30]: 99%
- kinase still bound, per cent of control [31]: 100%
- kinase still bound, per cent of control [32]: 0.15%
- kinase still bound, per cent of control [33]: 7.4%
- kinase still bound, per cent of control [34]: 83%
- kinase still bound, per cent of control [35]: 100%
- kinase still bound, per cent of control [36]: 100%
- kinase still bound, per cent of control [37]: 62%
- kinase still bound, per cent of control [38]: 100%
- kinase still bound, per cent of control [39]: 100%
- kinase still bound, per cent of control [40]: 100%
- kinase still bound, per cent of control [41]: 5.6%

Compound: CCN1CCN(Cc2ccc(Nc3ncc4c(n3)N(C)c3ccccc3C(=O)N4C)cc2C(F)(F)F)CC1
- kinase still bound, per cent of control [1]: 57%
- kinase still bound, per cent of control [2]: 53%
- kinase still bound, per cent of control [3]: 61%
- kinase still bound, per cent of control [4]: 76%
- kinase still bound, per cent of control [5]: 94%
- kinase still bound, per cent of control [6]: 100%
- kinase still bound, per cent of control [7]: 100%
- kinase still bound, per cent of control [8]: 100%
- kinase still bound, per cent of control [9]: 79%
- kinase still bound, per cent of control [10]: 100%
- kinase still bound, per cent of control [11]: 26%
- kinase still bound, per cent of control [12]: 100%
- kinase still bound, per cent of control [13]: 21%
- kinase still bound, per cent of control [14]: 5%
- kinase still bound, per cent of control [15]: 86%
- kinase still bound, per cent of control [16]: 100%
- kinase still bound, per cent of control [17]: 11%
- kinase still bound, per cent of control [18]: 100%
- kinase still bound, per cent of control [19]: 0.1%
- kinase still bound, per cent of control [20]: 100%
- kinase still bound, per cent of control [21]: 64%
- kinase still bound, per cent of control [22]: 77%
- kinase still bound, per cent of control [23]: 34%
- kinase still bound, per cent of control [24]: 100%
- kinase still bound, per cent of control [25]: 47%
- kinase still bound, per cent of control [26]: 30%
- kinase still bound, per cent of control [27]: 5%
- kinase still bound, per cent of control [28]: 100%
- kinase still bound, per cent of control [29]: 27%
- kinase still bound, per cent of control [30]: 25%
- kinase still bound, per cent of control [31]: 100%
- kinase still bound, per cent of control [32]: 2.4%
- kinase still bound, per cent of control [33]: 54%
- kinase still bound, per cent of control [34]: 15%
- kinase still bound, per cent of control [35]: 100%
- kinase still bound, per cent of control [36]: 100%
- kinase still bound, per cent of control [37]: 85%
- kinase still bound, per cent of control [38]: 73%
- kinase still bound, per cent of control [39]: 81%
- kinase still bound, per cent of control [40]: 89%
- kinase still bound, per cent of control [41]: 34%

Compound: C=CC(=O)Nc1cccc(Nc2nc(N[C@H]3CC[C@H](N(C)C)CC3)nc3c2ncn3C(C)C)c1
- kinase still bound, per cent of control [1]: 94%
- kinase still bound, per cent of control [2]: 31%
- kinase still bound, per cent of control [3]: 93%
- kinase still bound, per cent of control [4]: 100%
- kinase still bound, per cent of control [5]: 100%
- kinase still bound, per cent of control [6]: 100%
- kinase still bound, per cent of control [7]: 60%
- kinase still bound, per cent of control [8]: 5.1%
- kinase still bound, per cent of control [9]: 23%
- kinase still bound, per cent of control [10]: 74%
- kinase still bound, per cent of control [11]: 14%
- kinase still bound, per cent of control [12]: 2.6%
- kinase still bound, per cent of control [13]: 0%
- kinase still bound, per cent of control [14]: 38%
- kinase still bound, per cent of control [15]: 83%
- kinase still bound, per cent of control [16]: 76%
- kinase still bound, per cent of control [17]: 25%
- kinase still bound, per cent of control [18]: 100%
- kinase still bound, per cent of control [19]: 100%
- kinase still bound, per cent of control [20]: 32%
- kinase still bound, per cent of control [21]: 55%
- kinase still bound, per cent of control [22]: 94%
- kinase still bound, per cent of control [23]: 15%
- kinase still bound, per cent of control [24]: 59%
- kinase still bound, per cent of control [25]: 44%
- kinase still bound, per cent of control [26]: 100%
- kinase still bound, per cent of control [27]: 36%
- kinase still bound, per cent of control [28]: 93%
- kinase still bound, per cent of control [29]: 21%
- kinase still bound, per cent of control [30]: 100%
- kinase still bound, per cent of control [31]: 100%
- kinase still bound, per cent of control [32]: 73%
- kinase still bound, per cent of control [33]: 88%
- kinase still bound, per cent of control [34]: 72%
- kinase still bound, per cent of control [35]: 100%
- kinase still bound, per cent of control [36]: 98%
- kinase still bound, per cent of control [37]: 95%
- kinase still bound, per cent of control [38]: 93%
- kinase still bound, per cent of control [39]: 100%
- kinase still bound, per cent of control [40]: 100%
- kinase still bound, per cent of control [41]: 48%
